Measured values reported in publication PMC11986975, “A Cdk5 inhibitor restores cognitive function and alleviates type 2 diabetes in mice” (iScience, 2025).

Key:
Type in all cases: in vivo
[1] = tested on: HFD-fed mice; assay: Rotarod test in HFD mice; conditions: i.p., 20 days
Description: Rats and mice have been tested for motor coordination using the rotarod test. The animals were placed on a horizontal rod that rotates around its long axis for this test; in order to remain upright and prevent sliding off, the animal must move ahead. Every 5 min, the rod’s speed was raised, and the number of falls were counted to assess the motor coordination.[23]^,[55]

[2] = tested on: T1, CDK5; assay: Cdk5 kinase activity of Cdk5 pulled down from hippocampus lysate of treated HFD mice; conditions: i.p., 20 days, in the presence of p25
T1 construct: Cdk5 kinase activity using pulled down Cdk5 from the hippocampus lysate of the mouse groups; from tissue; host or cells: hippocampus / brain lysate of male C57BL/6J mice on high-fat diet
Description: Cdk5 was immunoprecipitated from N2A cells and brain lysate using a Cdk5 antibody. Kinase assays were performed using a Promega ADP-Glo Kinase Assay kit with Cdk5/p35 and Cdk5/p25 complexes. Histone was used as a substrate to test kinase activity Cdk5 was immunoprecipitated from N2a cells overexpressing Cdk5/p35 and Cdk5/p25, following treatment with BLINK11 and BLINK15 inhibitors at concentrations of 50nM and 100nM, using a Cdk5 antibody. A kinase assay was subsequently conducted as described in Bankston et al.[53] Additionally, Cdk5 was precipitated from mouse brain lysates treated with BLINK11 and BLINK15 inhibitors. The immunoprecipitation was performed with 100 μL of A/G beads, 2 μg of Cdk5 antibody, and 150 μg of cell and brain lysates, with elution carried out using a urea elution buffer. The kinase assay was conducted using the ADP-Glo Kinase Assay Kit (Promega) with immunoprecipitated Cdk5, ATP, and 1–2 μg of histone as the substrate.

[3] = tested on: amyloid beta (Aβ) 1–42; assay: Amyloid beta 1-42 in hippocampus of treated HFD mice (ELISA and immunohistochemistry); conditions: i.p., 40 mg/kg
[4] = tested on: HFD-fed mice; assay: Y-maze test in HFD mice; conditions: i.p., 20 days
Description: As previously mentioned, the Y-maze test was utilized to evaluate the mouse groups' short-term spatial memory The Y-maze test was used to assess short-term spatial memory in the mouse groups. The apparatus consists of three arms arranged in a Y-shape, typically labeled A, B, and C, with each arm having the same length and width. Mice were initially placed in one arm (usually arm A) and allowed to explore freely for 5 min, with one of the other arms blocked off, restricting exploration to the starting arm and the remaining open arm. After a 5-min delay, the mouse was reintroduced to the maze with all arms accessible. The time spent in each arm and the number of entries into each arm were recorded over a 5-min period. […] We also evaluated the mice’s spontaneous alternation rate during the Y-maze test. Spontaneous alternation reflects working memory, as it refers to the mouse’s tendency to enter a less recently visited arm. The sequence and number of arm entries were tracked, with an alternation defined as consecutive entries into all three arms without repetition (e.g., A-B-C, B-C-A).[59]^,[60]^,[61] […] As a result, we evaluated the novel arm’s exploration according to many criteria.Spontaneous Alternation (%) = {(Number of alternations)/ (Total arm entries−2)} ×100

SMILES	Muscle strength and motor coordination on the rotarod [1]	CDK5 activity in hippocampal lysate [2]	Aβ 1–42 accumulation in the hippocampus [3]	Y-maze alteration percentage ([4]; 20 mg/kg/day)	Y-maze alteration percentage ([4]; 40 mg/kg/day)
O=C(COc1ccccc1C(=O)Nc1cccc(Cl)c1Cl)Nc1ccc(N2CCOCC2)c(Cl)c1 [BLINK11, 2-(2-((3-chloro-4-morpholinophenyl)amino)-2-oxoethoxy)-N-(2,3-dichlorophenyl)benzamide]	rescue effect	significant reduction in CDK5 activity	significantly reduced	did not exhibit any rescue effect	the decrease in alteration percentage was recovered
COc1ccc(C(=O)C[C@@]2(O)C(=O)N(Cc3ccccc3)c3ccc(Br)cc32)cc1[N+](=O)[O-] [BLINK15]		significant reduction in CDK5 activity			
